From ChEMBL document CHEMBL2385075, “Anti-inflammatory and antinociceptive activity of epiisopiloturine, an imidazole alkaloid isolated from Pilocarpus microphyllus” (J Nat Prod, 2013)
Calls of active or inactive are those of the source. The rule behind the calls is not given here.

What was measured:
[1] = test system: Mus musculus; assay: Neurotoxicity in Swiss mouse assessed as motor impairment at 5 mg/kg, ip administered 60 mins measured for 1 min by rotarod test; assay type: toxicity, organism-based; design: dose 5 mg/kg, route intraperitoneal; conditions: in vivo
[2] = test system: Mus musculus; assay: Antinociceptive activity in Swiss mouse assessed as inhibition of formalin-induced paw licking at 1 mg/kg, ip administered 30 mins prior to formalin challenge measured during neurogenic phase for 1 to 5 mins in presence of opioid receptor antagonist naloxone; assay type: functional, organism-based; design: dose 1 mg/kg
[3] = test system: Mus musculus; assay: Antinociceptive activity in Swiss mouse assessed as inhibition of formalin-induced paw licking at 1 mg/kg, ip administered 30 mins prior to formalin challenge measured during inflammatory phase for 20 to 25 mins; assay type: functional; conditions: route intraperitoneal
[4] = test system: Mus musculus; assay: Antinociceptive activity in Swiss mouse assessed as inhibition of formalin-induced paw licking at 1 mg/kg, ip administered 30 mins prior to formalin challenge measured during neurogenic phase for 1 to 5 mins; assay type: functional; conditions: route intraperitoneal
[5] = test system: Mus musculus; assay: Neurotoxicity in Swiss mouse assessed as motor impairment at 1 to 10 mg/kg, ip administered 60 mins measured for 1 min by rotarod test; assay type: toxicity, organism-based; design: dose 1-10 mg/kg, route intraperitoneal; conditions: in vivo
[6] = test system: Mus musculus; assay: Antinociceptive activity in Swiss mouse assessed as increase in latency time at 1 mg/kg, ip administered 30 mins prior to testing measured after 30 to 120 mins by hot plate test; assay type: functional, organism-based; design: dose 1 mg/kg
[7] = test system: Mus musculus; assay: Antinociceptive activity in Swiss mouse assessed as inhibition of acetic acid-induced abdominal writhing response at 1 mg/kg, ip administered 30 mins prior to acetic acid challenge measured for 10 to 20 mins; assay type: functional; conditions: Abdomen, route intraperitoneal
[8] = test system: Mus musculus; assay: Antiinflammatory activity in Swiss mouse assessed as reduction of carrageenan-induced IL-1beta level into peritoneal fluid at 1 mg/kg, ip administered 1 hr prior to carrageenan challenge measured after 4 hrs by sandwich ELISA; assay type: functional, organism-based; design: dose 1 mg/kg
[9] = test system: Mus musculus; assay: Antiinflammatory activity in Swiss mouse assessed as reduction of carrageenan-induced TNFalpha level into peritoneal fluid at 1 mg/kg, ip administered 1 hr prior to carrageenan challenge measured after 4 hrs by sandwich ELISA; assay type: functional, organism-based; design: dose 1 mg/kg
[10] = test system: Mus musculus; assay: Antiinflammatory activity in Swiss mouse assessed as inhibition of carrageenan-induced neutrophil migration into peritoneal cavity at 1 mg/kg, ip administered 30 mins prior to carrageenan challenge measured after 4 hrs relative to carrageenan-treated control; assay type: functional; conditions: route intraperitoneal
[11] = test system: Mus musculus; assay: Antiinflammatory activity in Swiss mouse assessed as inhibition of carrageenan-induced total leukocytes migration into peritoneal cavity at 1 mg/kg, ip administered 30 mins prior to carrageenan challenge measured after 4 hrs relative to carrageenan-treated control; assay type: functional; conditions: route intraperitoneal
[12] = test system: Mus musculus; assay: Antiinflammatory activity in Swiss mouse assessed as reduction of carrageenan-induced paw myeloperoxidase activity measured per mg of tissue at 1 mg/kg, ip administered 30 mins prior to carrageenan challenge measured after 4 hrs (reference value: 10.9 +/- 1.2 U); assay type: functional; conditions: route intraperitoneal
[13] = test system: Mus musculus; assay: Antiinflammatory activity in Swiss mouse assessed as inhibition of histamine-induced paw edema at 1 mg/kg, ip administered 30 mins prior to histamine challenge measured after 60 mins relative to untreated control; assay type: functional, organism-based; design: dose 1 mg/kg
[14] = test system: Mus musculus; assay: Antiinflammatory activity in Swiss mouse assessed as inhibition of bradykinin-induced paw edema at 1 mg/kg, ip administered 30 mins prior to bradykinin challenge measured after 60 mins in presence of captopril relative to untreated control; assay type: functional; conditions: route intraperitoneal
[15] = test system: Mus musculus; assay: Antiinflammatory activity in Swiss mouse assessed as inhibition of serotonin-induced paw edema at 1 mg/kg, ip administered 30 mins prior to serotonin challenge measured after 4 hrs relative to untreated control; assay type: functional; conditions: route intraperitoneal
[16] = test system: Mus musculus; assay: Antiinflammatory activity in Swiss mouse assessed as inhibition of dextran sulfate-induced paw edema at 1 mg/kg, ip administered 30 mins prior to dextran sulfate challenge measured after 4 hrs relative to untreated control; assay type: functional; conditions: route intraperitoneal
[17] = test system: Mus musculus; assay: Antiinflammatory activity in Swiss mouse assessed as inhibition of carrageenan-induced paw edema at 1 mg/kg, ip measured at 4 hrs by plethysmometric analysis relative to untreated control; assay type: functional; conditions: route intraperitoneal
[18] = test system: Mus musculus; assay: Antiinflammatory activity in Swiss mouse assessed as inhibition of carrageenan-induced paw edema at 0.3 mg/kg, ip measured at 4 hrs by plethysmometric analysis relative to untreated control; assay type: functional; conditions: route intraperitoneal
[19] = test system: Mus musculus; assay: Antiinflammatory activity in Swiss mouse assessed as inhibition of carrageenan-induced paw edema at 0.1 mg/kg, ip measured at 4 hrs by plethysmometric analysis relative to untreated control; assay type: functional; conditions: route intraperitoneal
[20] = test system: Mus musculus; assay: Antiinflammatory activity in Swiss mouse assessed as inhibition of carrageenan-induced paw edema at 1 mg/kg, ip measured at 3 hrs by plethysmometric analysis relative to untreated control; assay type: functional; conditions: route intraperitoneal
[21] = test system: Mus musculus; assay: Antiinflammatory activity in Swiss mouse assessed as inhibition of carrageenan-induced paw edema at 0.3 mg/kg, ip measured at 3 hrs by plethysmometric analysis relative to untreated control; assay type: functional; conditions: route intraperitoneal
[22] = test system: Mus musculus; assay: Antiinflammatory activity in Swiss mouse assessed as inhibition of carrageenan-induced paw edema at 0.1 mg/kg, ip measured at 3 hrs by plethysmometric analysis relative to untreated control; assay type: functional; conditions: route intraperitoneal
[23] = test system: Mus musculus; assay: Antiinflammatory activity in Swiss mouse assessed as inhibition of carrageenan-induced paw edema at 1 mg/kg, ip measured at 2 hrs by plethysmometric analysis relative to untreated control; assay type: functional; conditions: route intraperitoneal
[24] = test system: Mus musculus; assay: Antiinflammatory activity in Swiss mouse assessed as inhibition of carrageenan-induced paw edema at 0.3 mg/kg, ip measured at 2 hrs by plethysmometric analysis relative to untreated control; assay type: functional; conditions: route intraperitoneal
[25] = test system: Mus musculus; assay: Antiinflammatory activity in Swiss mouse assessed as inhibition of carrageenan-induced paw edema at 0.1 mg/kg, ip measured at 2 hrs by plethysmometric analysis relative to untreated control; assay type: functional; conditions: route intraperitoneal
[26] = test system: Mus musculus; assay: Antiinflammatory activity in Swiss mouse assessed as inhibition of carrageenan-induced paw edema at 1 mg/kg, ip measured at 1 hr by plethysmometric analysis relative to untreated control; assay type: functional; conditions: route intraperitoneal
[27] = test system: Mus musculus; assay: Antiinflammatory activity in Swiss mouse assessed as inhibition of carrageenan-induced paw edema at 0.3 mg/kg, ip measured at 1 hr by plethysmometric analysis relative to untreated control; assay type: functional; conditions: route intraperitoneal
[28] = test system: Mus musculus; assay: Antiinflammatory activity in Swiss mouse assessed as inhibition of carrageenan-induced paw edema at 0.1 mg/kg, ip measured at 1 hr by plethysmometric analysis relative to untreated control; assay type: functional; conditions: route intraperitoneal
[29] = test system: Mus musculus; assay: Antinociceptive activity in Swiss mouse assessed as increase in latency time at 5 mg/kg, sc administered 30 mins prior to testing measured after 30 to 120 mins by hot plate test; assay type: functional, organism-based; design: dose 5 mg/kg
[30] = species on record: Mus musculus; assay: animal or person; conditions: Swiss, sc, read-out: INH
Description: Antinociceptive activity in Swiss mouse assessed as inhibition of formalin-induced paw licking at 5 mg/kg, sc administered 30 mins prior to formalin challenge measured during inflammatory phase for 20 to 25 mins

[31] = species on record: Mus musculus; assay: animal or person; conditions: Swiss, sc, read-out: INH; remark: listed apart in the source
Description: Antinociceptive activity in Swiss mouse assessed as inhibition of formalin-induced paw licking at 5 mg/kg, sc administered 30 mins prior to formalin challenge measured during neurogenic phase for 1 to 5 mins

[32] = species on record: Mus musculus; assay: animal or person; conditions: Swiss, Abdomen, ip, read-out: INH
Description: Antinociceptive activity in Swiss mouse assessed as inhibition of acetic acid-induced abdominal writhing response at 5 mg/kg, ip administered 30 mins prior to acetic acid challenge measured for 10 to 20 mins

[33] = test system: Mus musculus; assay: Antiinflammatory activity in Swiss mouse assessed as inhibition of carrageenan-induced neutrophil migration into peritoneal cavity at 10 mg/kg, ip administered 30 mins prior to carrageenan challenge measured after 4 hrs relative to carrageenan-treated control; assay type: functional; conditions: route intraperitoneal
[34] = test system: Mus musculus; assay: Antiinflammatory activity in Swiss mouse assessed as inhibition of carrageenan-induced total leukocytes migration into peritoneal cavity at 10 mg/kg, ip administered 30 mins prior to carrageenan challenge measured after 4 hrs relative to carrageenan-treated control; assay type: functional; conditions: route intraperitoneal
[35] = test system: Mus musculus; assay: Antiinflammatory activity in Swiss mouse assessed as reduction of carrageenan-induced paw myeloperoxidase activity measured per mg of tissue at 10 mg/kg, ip administered 30 mins prior to carrageenan challenge measured after 4 hrs (reference value: 10.9 +/- 1.2 U); assay type: functional; conditions: route intraperitoneal
[36] = test system: Mus musculus; assay: Antiinflammatory activity in Swiss mouse assessed as inhibition of histamine-induced paw edema at 10 mg/kg, ip administered 30 mins prior to histamine challenge measured after 60 mins relative to untreated control; assay type: functional, organism-based; design: dose 10 mg/kg
[37] = test system: Mus musculus; assay: Antiinflammatory activity in Swiss mouse assessed as inhibition of bradykinin-induced paw edema at 10 mg/kg, ip administered 30 mins prior to bradykinin challenge measured after 60 mins in presence of captopril relative to untreated control; assay type: functional, organism-based; design: dose 10 mg/kg
[38] = test system: Mus musculus; assay: Antiinflammatory activity in Swiss mouse assessed as inhibition of serotonin-induced paw edema at 10 mg/kg, ip administered 30 mins prior to serotonin challenge measured after 4 hrs relative to untreated control; assay type: functional, organism-based; design: dose 10 mg/kg
[39] = test system: Mus musculus; assay: Antiinflammatory activity in Swiss mouse assessed as inhibition of dextran sulfate-induced paw edema at 10 mg/kg, ip administered 30 mins prior to dextran sulfate challenge measured after 4 hrs relative to untreated control; assay type: functional, organism-based; design: dose 10 mg/kg
[40] = test system: Mus musculus; assay: Antiinflammatory activity in Swiss mouse assessed as inhibition of carrageenan-induced paw edema at 10 mg/kg, ip measured at 4 hrs by plethysmometric analysis relative to untreated control; assay type: functional; conditions: route intraperitoneal
[41] = test system: Mus musculus; assay: Antiinflammatory activity in Swiss mouse assessed as inhibition of carrageenan-induced paw edema at 10 mg/kg, ip measured at 3 hrs by plethysmometric analysis relative to untreated control; assay type: functional; conditions: route intraperitoneal
[42] = test system: Mus musculus; assay: Antiinflammatory activity in Swiss mouse assessed as inhibition of carrageenan-induced paw edema at 10 mg/kg, ip measured at 2 hrs by plethysmometric analysis relative to untreated control; assay type: functional; conditions: route intraperitoneal
[43] = test system: Mus musculus; assay: Antiinflammatory activity in Swiss mouse assessed as inhibition of carrageenan-induced paw edema at 10 mg/kg, ip measured at 1 hr by plethysmometric analysis relative to untreated control; assay type: functional; conditions: route intraperitoneal

Compound: CN1C(=O)CN=C(c2ccccc2)c2cc(Cl)ccc21 [DIAZEPAM]
- Activity [1]: Toxic

Compound: Cn1cnc(C[C@H]2COC(=O)[C@@H]2[C@H](O)c2ccccc2)c1 [EPIISOPILOTURINE]
- Activity [2]: inactive
- inhibition in vivo at 1 mg/kg [3]: 89.2%
- inhibition in vivo at 1 mg/kg [4]: 58.2%
- Activity [5]: Non-toxic
- Activity [6]: inactive
- inhibition in vivo at 1 mg/kg [7]: 66.4%
- Activity [8]: Active
- Activity [9]: Active
- inhibition in vivo at 1 mg/kg [10]: 73.8%
- inhibition in vivo at 1 mg/kg [11]: 55.2%
- Activity [12]: 3.8 U
- inhibition [13]: inactive
- inhibition in vivo at 1 mg/kg [14]: 76.9%
- inhibition in vivo at 1 mg/kg [15]: 46.7%
- inhibition in vivo at 1 mg/kg [16]: 54.1%
- inhibition in vivo at 1 mg/kg [17]: 73%
- inhibition in vivo at 0.3 mg/kg [18]: 67.6%
- inhibition in vivo at 0.1 mg/kg [19]: 49.7%
- inhibition in vivo at 1 mg/kg [20]: 85%
- inhibition in vivo at 0.3 mg/kg [21]: 70%
- inhibition in vivo at 0.1 mg/kg [22]: 55%
- inhibition in vivo at 1 mg/kg [23]: 79.5%
- inhibition in vivo at 0.3 mg/kg [24]: 71.3%
- inhibition in vivo at 0.1 mg/kg [25]: 46.8%
- inhibition in vivo at 1 mg/kg [26]: 65%
- inhibition in vivo at 0.3 mg/kg [27]: 48%
- inhibition in vivo at 0.1 mg/kg [28]: 36%

Compound: CN1CC[C@]23c4c5ccc(O)c4O[C@H]2[C@@H](O)C=C[C@H]3[C@H]1C5 [MORPHINE]
- Activity [29]: Active
- inhibition in vivo at 5 mg/kg [30]: 97.2%
- inhibition in vivo at 5 mg/kg [31]: 94%
- inhibition in vivo at 5 mg/kg [32]: 98.3%

Compound: COc1ccc2c(c1)c(CC(=O)O)c(C)n2C(=O)c1ccc(Cl)cc1 [INDOMETHACIN]
- inhibition in vivo at 10 mg/kg [33]: 79.6%
- inhibition in vivo at 10 mg/kg [34]: 60.2%
- Activity [35]: 3.1 U
- inhibition [36]: Active
- inhibition [37]: Active
- inhibition [38]: Active
- inhibition [39]: Active
- inhibition in vivo at 10 mg/kg [40]: 37%
- inhibition in vivo at 10 mg/kg [41]: 43.7%
- inhibition in vivo at 10 mg/kg [42]: 50.9%
- inhibition in vivo at 10 mg/kg [43]: 55%
